Columns and labels:
Type in all cases: in vivo
Conditions in all cases: 250 g/ha, evaluated after 13 days
[1] = tested on: Echinochloa crus-galli (ECHCG); assay: Post-emergence herbicidal glasshouse test
Protocol: (§1) Seeds of a variety of test species are sown in standard soil in pots Amaranthus palmeri (AMAPA), Amaranthus retoflexus (AMARE), Echinochloa crus-galli (ECHCG), Ipomoea hederacea (IPOHE), Setaria faberi (SETFA). After cultivation for one day (pre-emergence) or after 8 days cultivation (post-emergence) under controlled conditions in a glasshouse (at 24/16 °C, day/night; 14 hours light; 65% humidity), the plants are sprayed with an aqueous spray solution derived from the formulation of the technical active ingredient in acetone/water (50:50) solution containing 0.5% Tween 20 (polyoxyethelyene sorbitan monolaurate, CAS RN 9005-64-5). Compounds are applied at 250 g/ha unless otherwise stated. The test plants are then grown in a glasshouse under controlled conditions in a glasshouse (at 24/16 °C, day/night; 14 hours light; 65% humidity) and watered twice daily. After 13 days for pre and post-emergence, the test is evaluated for the percentage damage caused to the plant. The biological activities are shown in the following table on a five-point scale (5=81-100%; 4=61-80%; 3=41-60%; 2=21-40%; 1=0-20%).

[2] = tested on: Ipomoea hederacea (IPOHE); assay: Post-emergence herbicidal glasshouse test
Protocol: as §1

[3] = tested on: Amaranthus palmeri (AMAPA); assay: Post-emergence herbicidal glasshouse test
Protocol: as §1

Setaria faberi (SETFA) [4] = assay: Post-emergence herbicidal glasshouse test
Protocol: as §1

[5] = tested on: Amaranthus retoflexus (AMARE); assay: Post-emergence herbicidal glasshouse test
Protocol: as §1

[6] = tested on: Echinochloa crus-galli (ECHCG); assay: Pre-emergence herbicidal glasshouse test
Protocol: as §1

[7] = tested on: Ipomoea hederacea (IPOHE); assay: Pre-emergence herbicidal glasshouse test
Protocol: as §1

[8] = tested on: Amaranthus palmeri (AMAPA); assay: Pre-emergence herbicidal glasshouse test
Protocol: as §1

Setaria faberi (SETFA) [9] = assay: Pre-emergence herbicidal glasshouse test
Protocol: as §1

[10] = tested on: Amaranthus retoflexus (AMARE); assay: Pre-emergence herbicidal glasshouse test
Protocol: as §1

| SMILES | percentage damage caused to the plant (five-point scale), ECHCG [1] | percentage damage caused to the plant (five-point scale), IPOHE [2] | percentage damage caused to the plant (five-point scale), AMAPA [3] | percentage damage caused to the plant (five-point scale), SETFA (Setaria faberi (SETFA) [4]) | percentage damage caused to the plant (five-point scale), AMARE [5] | percentage damage caused to the plant (five-point scale), ECHCG [6] | percentage damage caused to the plant (five-point scale), IPOHE [7] | percentage damage caused to the plant (five-point scale), AMAPA [8] | percentage damage caused to the plant (five-point scale), SETFA (Setaria faberi (SETFA) [9]) | percentage damage caused to the plant (five-point scale), AMARE [10] |
| --- | --- | --- | --- | --- | --- | --- | --- | --- | --- | --- |
| FC(F)c1cc(Cc2ncc(Cl)cn2)n(CCBr)n1 [Compound 1.025] | 1 (0-20%) | 1 (0-20%) | 1 (0-20%) | 1 (0-20%) | 1 (0-20%) | 2 (21-40%) | 1 (0-20%) | 4 (61-80%) | 1 (0-20%) | 4 (61-80%) |
| FC(F)(F)CCCn1nc(C(F)(F)F)cc1Cc1ncc(Cl)cn1 [Compound 1.006] | 3 (41-60%) | 3 (41-60%) | 5 (81-100%) | 4 (61-80%) | 5 (81-100%) | 4 (61-80%) | 3 (41-60%) | 5 (81-100%) | 5 (81-100%) | 5 (81-100%) |
